# Assays:
# [1] = tested on: parental lung cancer cells; test: Alamar Blue proliferation assay, average over parental lung cancer cell lines; type: cell-based, human; conditions: average of 12 parental lung cancer cell lines; vs negative control miRNA (=100%); 72 hours (Calu-3 10 days)
# Excerpt: The inventors assessed the therapeutic effect of hsa-miR-147 for lung cancer by using 12 individual lung cancer cell lines. To measure cellular proliferation of lung cancer cells, the following parental non-small cell lung cancer (NSCLC) cells were used: cells derived from lung adenocarcinoma (A549, H1299, H522, H838, Calu-3, HCC827, HCC2935), cells derived from lung squamous cell carcinoma (H520, H226), cells derived from lung adenosquamous cell carcinoma (H596), cells derived from lung bronchioalveolar carcinoma (H1650), and cells derived from lung large cell carcinoma (H460). In addition to these parental cell lines, highly metastatic NSCLC cells were used that stably express the firefly luciferase gene: A549-luc, H460-luc, HCC827-luc, H1650-luc, H441-luc. Unlike the parental cell lines, these metastatic cells readily migrate to distant sites of the test animal and form metastases upon subcutaneous, orthotopic, or intravenous injection. Synthetic hsa-miR-147 or negative control miRNA was delivered via lipid-based transfection into A549, H1299, H522, H838, Calu-3, HCC827, HCC2935, H520, H596, H1650, H460, A549-luc, H460-luc, HCC827-luc, H1650-luc, H441-luc cells and via electroporation into H226 cells. […]
# Du145 cells = test: Alamar Blue proliferation assay, Du145; type: cell-based, human; conditions: 30 nM, normalized to negative control miRNA (100% proliferation)
# Excerpt: (§1) The inventors assessed the therapeutic effect of hsa-miR-147 for prostate cancer by using 4 individual human prostate cancer cell lines. To measure cellular proliferation of prostate cancer cells, the following prostate cancer cell lines were used: PPC-1 and PC3, derived from a bone metastasis; Du145, derived from a brain metastasis; RWPE2, derived from prostate cells immortalized by human papillomavirus 18 and transformed by the K-RAS oncogene (Bello et al., 1997; Stone et al., 1978; Brothman et al., 1991). PC3, PPC-1, and Du145 cells lack expression of the prostate-specific antigen (PSA) and are independent of androgen receptor (AR) signaling. In contrast, RWPE2 cells test positive for PSA and AR.
# (§2) PPC-1, Du145 and RWPE2 cells were transfected with synthetic hsa-miR-147 (Pre-miR™-hsa-miR-147, Ambion cat. no. AM17100) or negative control miRNA (NC; Pre-miR™ microRNA Precursor Molecule-Negative Control #2; Ambion cat. no. AM17111) in a 96-well format using a lipid-based transfection reagent. […] Proliferation was assessed 4-7 days post-transfection using Alamar Blue™ (Invitrogen) following the manufacturer's instructions. […] Fluorescent light units (FLU) were measured after 3 hours, normalized to the control, and plotted as percent change in proliferation. […]
# [2] = tested on: human prostate cancer cells PPC-1, Du145 and RWPE2; test: Alamar Blue proliferation assay, average over prostate cancer cell lines; type: cell-based; conditions: 30 nM, 4-7 days post-transfection; average of PPC-1, Du145, RWPE2; vs negative control miRNA (100%)
# Excerpt: as §1, §2
substance,measurement,setting,value
"hsa-miR-147: Synthetic pre-miR-147 (Ambion AM17100; Dharmacon in vivo); mature sequence GUGUGUGGAAAUGCUUCUGC, MIMAT0000251, SEQ ID NO:114 (synthetic pre-miR (Ambion/Dharmacon), chemistry not given here; listed as Homo sapiens)","inhibition of cellular proliferation, on average",[1],25%
same,% proliferation,Du145 cells,61.50%
same,"inhibition of cellular proliferation, on average",[2],27.48%

# — US20090131356A1, “miR-15, miR-26, miR-31, miR-145, miR-147, miR-188, miR-215, miR-216, miR-331, mmu-miR-292-3P REGULATED GENES AND PATHWAYS AS TARGETS FOR THERAPEUTIC INTERVENTION” (ASURAGEN, INC., priority 2006, published 2009)
